Test results: patent US5194371A, “Production of pradimicin antibiotics” (Bristol-Myers Squibb Company, priority 1991, dated 1993)

Experiments:
[1] = test system: Candida albicans A9540; assay: In vivo efficacy against C. albicans A9540 systemic infection in mice; set-up: species or system male ICR mice infected with Candida albicans; settings: A9540, iv, 504 h, i.v., single dose immediately after challenge, survival on day 21, read-out: PD50 (median protective dose)
Description: The in vivo efficacy of BMY-28960 was evaluated against Candida albicans A9540 systemic infection in male ICR mice (20-24 g body weight). Five mice are used for each dose level. Mice were challenged intravenously with 10 times the median lethal dose of the pathogen suspended in saline and BMY-28960 was intravenously administered once immediately after the challenge. The median protective dose (PD50) was calculated from survival rates recorded on day 21.

[2] = Solubility in solvent
[3] = Tolerability following intravenous administration in ICR mice; format: in vivo; settings: i.v., up to 600 mg/kg
[4] = test system: strain AB 1236; assay: Antibiotic susceptibility of strain AB 1236 (antibiotic disks); format: cell-based, Actinomadura sp. AB 1236; settings: 37° C., 4 days
Description: Antibiotic susceptibility of strain AB 1236 was tested using antibiotic disks (Tridisk, Eiken Chemical Co., Ltd.). The disks were placed onto the surface of yeast-glucose-malt agar (yeast extract 0.1%, glucose 1%, malt extract 0.1%, CaCl2.2H2 O 0.05% and agar 1.5%) which had been seeded by strain AB 1236 (4% inoculum), and the plates were then incubated at 37° C. for 4 days. Strain AB 1236 was resistant to 50 μg of fosfomycin and 300 U of polymixin B, and susceptible to 20 U of ampicillin, 1 μg of clavulanic acid, 2 μg of ticarcillin, 10 μg of cephalexin, 30 μg of tetracycline, 10 μg of chloramphenicol, 0.5 μg of erythromycin, 2 μg of josamycin, 2 μg of lincomycin, 5 μg of kanamycin, 5 μg of gentamicin, 5 μg of tobramycin, 2 μg of nalidixic acid, 2 μg of norfloxacin and 50 U of colistin.

C[C@@H]1[C@H](O)[C@@H](C)/C=C/C=C/C=C/C=C/C=C/C=C/C=C/[C@H](O[C@@H]2O[C@H](C)[C@@H](O)[C@H](N)[C@@H]2O)C[C@@H]2O[C@](O)(C[C@@H](O)C[C@@H](O)[C@H](O)CC[C@@H](O)C[C@@H](O)CC(=O)O[C@H]1C)C[C@H](O)[C@H]2C(=O)O [Amphotericin B]
ED50 [1]: 0.31 mg/kg

COc1cc(O)c2c(c1)C(=O)c1c(cc3c(c1O)-c1c(cc(C)c(C(=O)N[C@H](CO)C(=O)O)c1O)[C@H](O[C@@H]1O[C@H](C)[C@H](O)[C@H](O[C@@H]4OC[C@@H](O)[C@H](O)[C@H]4O)[C@H]1O)[C@H]3O)C2=O [BMY-28960, 4'-deamino-4'-axial-hydroxypradimicin FA-2]
Solubility in solvent ([2]; Dimethyl sulfoxide, N,N-dimethylformamide and alkaline water): Soluble
Solubility in solvent ([2]; Ethanol, methanol and acetone): Slightly soluble
Solubility in solvent ([2]; Ethyl acetate, benzene, chloroform, acidic water, etc.): Isoluble
Lethality and apparent side effects [3]: neither lethality nor apparent side effects were noted
ED50 [1]: 6.7 mg/kg

OC(Cn1cncn1)(Cn1cncn1)c1ccc(F)cc1F [Fluconazole]
ED50 [1]: > 50 mg/kg

CN[C@@H]1[C@H](O[C@@H]2OC[C@@H](O)[C@H](O)[C@H]2O)[C@@H](O)[C@H](O[C@H]2c3cc(C)c(C(=O)N[C@H](C)C(=O)O)c(O)c3-c3c(cc4c(c3O)C(=O)c3cc(OC)cc(O)c3C4=O)[C@@H]2O)O[C@@H]1C [Pradimicin A]
ED50 [1]: 10 mg/kg

CC1(C)S[C@@H]2[C@H](NC(=O)[C@H](N)c3ccccc3)C(=O)N2[C@H]1C(=O)O [ampicillin]
Antibiotic susceptibility of strain AB 1236 ([4]; disk 20 U): susceptible

CC1=C(C(=O)O)N2C(=O)[C@@H](NC(=O)[C@H](N)c3ccccc3)[C@H]2SC1 [cephalexin]
Antibiotic susceptibility of strain AB 1236 ([4]; disk 10 μg): susceptible

O=C(N[C@H](CO)[C@H](O)c1ccc([N+](=O)[O-])cc1)C(Cl)Cl [chloramphenicol]
Antibiotic susceptibility of strain AB 1236 ([4]; disk 10 μg): susceptible

O=C(O)[C@H]1/C(=C/CO)O[C@@H]2CC(=O)N21 [clavulanic acid]
Antibiotic susceptibility of strain AB 1236 ([4]; disk 1 μg): susceptible

CC[C@H]1OC(=O)[C@H](C)[C@@H](O[C@H]2C[C@@](C)(OC)[C@@H](O)[C@H](C)O2)[C@H](C)[C@@H](O[C@@H]2O[C@H](C)C[C@H](N(C)C)[C@H]2O)[C@](C)(O)C[C@@H](C)C(=O)[C@H](C)[C@@H](O)[C@]1(C)O [erythromycin]
Antibiotic susceptibility of strain AB 1236 ([4]; disk 0.5 μg): susceptible

C[C@@H]1O[C@@H]1P(=O)(O)O [fosfomycin]
Antibiotic susceptibility of strain AB 1236 ([4]; disk 50 μg): resistant

NC[C@H]1O[C@H](O[C@H]2[C@H](O)[C@@H](O[C@H]3O[C@H](CO)[C@@H](O)[C@H](N)[C@H]3O)[C@H](N)C[C@@H]2N)[C@H](O)[C@@H](O)[C@@H]1O [kanamycin]
Antibiotic susceptibility of strain AB 1236 ([4]; disk 5 μg): susceptible

CCC[C@@H]1C[C@@H](C(=O)N[C@@H]([C@H]2O[C@H](SC)[C@H](O)[C@@H](O)[C@H]2O)[C@@H](C)O)N(C)C1 [lincomycin]
Antibiotic susceptibility of strain AB 1236 ([4]; disk 2 μg): susceptible

CCn1cc(C(=O)O)c(=O)c2ccc(C)nc21 [nalidixic acid]
Antibiotic susceptibility of strain AB 1236 ([4]; disk 2 μg): susceptible

CCn1cc(C(=O)O)c(=O)c2cc(F)c(N3CCNCC3)cc21 [norfloxacin]
Antibiotic susceptibility of strain AB 1236 ([4]; disk 2 μg): susceptible

CN(C)C1C(=O)C(C(N)=O)=C(O)C2(O)C(=O)C3=C(O)c4c(O)cccc4C(C)(O)C3CC12 (stereo not shown) [tetracycline]
Antibiotic susceptibility of strain AB 1236 ([4]; disk 30 μg): susceptible

CC1(C)S[C@@H]2[C@H](NC(=O)[C@H](C(=O)O)c3ccsc3)C(=O)N2[C@H]1C(=O)O [ticarcillin]
Antibiotic susceptibility of strain AB 1236 ([4]; disk 2 μg): susceptible

NC[C@H]1O[C@H](O[C@H]2[C@H](O)[C@@H](O[C@H]3O[C@H](CO)[C@@H](O)[C@H](N)[C@H]3O)[C@H](N)C[C@@H]2N)[C@H](N)C[C@@H]1O [tobramycin]
Antibiotic susceptibility of strain AB 1236 ([4]; disk 5 μg): susceptible

colistin
Antibiotic susceptibility of strain AB 1236 ([4]; disk 50 U): susceptible

gentamicin
Antibiotic susceptibility of strain AB 1236 ([4]; disk 5 μg): susceptible

josamycin
Antibiotic susceptibility of strain AB 1236 ([4]; disk 2 μg): susceptible

polymixin B
Antibiotic susceptibility of strain AB 1236 ([4]; disk 300 U): resistant
